Paper PMC5681653, “Structural basis of arrestin-3 activation and signaling” (Nature Communications, 2017)

Experiments:
arrestin-3 (1-393) = biological target: T1, arrestin-3 (1-393) (Bos taurus, UniProt P32120); assay: microscale thermophoresis, two-site fit, pre-IR fluorescence change; format: binding
T1 construct: gene ARRB2; residues 1-393 (stop codon at L394, deletes 394-408), pTrcHisB, E. coli BL21 Gold, purified by heparin, Q/SP and size exclusion columns; 43 kD monomer, 134 kD trimer with IP6

His tagged JNK3α2 = His tagged JNK3α2 (UniProt P53779); assay: pull-down; His tagged JNK3α2 (10 µg) on Ni-NTA resin, arrestin-3 (10 µg) added with and without 100 µM IP6; wash 20 mM MOPS pH 7.4, 150 mM NaCl, 25 mM imidazole; eluted with 250 mM imidazole; Coomassie and Western, densitometry
Chain of His tagged JNK3α2 (P53779 whole entry): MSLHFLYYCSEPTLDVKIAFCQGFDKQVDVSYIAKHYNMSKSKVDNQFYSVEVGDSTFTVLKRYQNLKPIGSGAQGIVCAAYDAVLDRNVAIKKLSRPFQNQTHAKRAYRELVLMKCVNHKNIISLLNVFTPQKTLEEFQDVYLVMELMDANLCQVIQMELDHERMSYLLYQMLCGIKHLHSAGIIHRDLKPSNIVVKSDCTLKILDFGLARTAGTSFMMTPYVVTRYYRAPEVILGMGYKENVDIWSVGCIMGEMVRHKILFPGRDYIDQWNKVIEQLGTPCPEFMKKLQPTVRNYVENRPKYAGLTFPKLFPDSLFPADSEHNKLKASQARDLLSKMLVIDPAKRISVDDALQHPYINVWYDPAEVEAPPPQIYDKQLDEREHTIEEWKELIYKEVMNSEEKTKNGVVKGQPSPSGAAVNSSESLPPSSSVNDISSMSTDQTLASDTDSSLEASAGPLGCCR

T1 sequence (P32120 1-393 isoform P32120-2): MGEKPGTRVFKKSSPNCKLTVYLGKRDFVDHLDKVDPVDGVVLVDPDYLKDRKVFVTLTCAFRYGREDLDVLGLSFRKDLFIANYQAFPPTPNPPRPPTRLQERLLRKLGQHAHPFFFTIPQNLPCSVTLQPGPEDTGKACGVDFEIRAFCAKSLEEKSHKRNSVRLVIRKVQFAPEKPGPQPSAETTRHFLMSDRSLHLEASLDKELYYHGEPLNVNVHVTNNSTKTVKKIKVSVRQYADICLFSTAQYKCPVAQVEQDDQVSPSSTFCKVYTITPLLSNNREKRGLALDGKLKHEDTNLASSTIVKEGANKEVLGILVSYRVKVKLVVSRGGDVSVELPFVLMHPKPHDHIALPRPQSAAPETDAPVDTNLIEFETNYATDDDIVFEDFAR

| Kd (arrestin-3 (1-393)) [nM] | fold change of bound arrestin-3 with 100 µM IP6 against without IP6 (His tagged JNK3α2) [fold] | Compound |
| --- | --- | --- |
| 57 | – | O=P(O)(O)O[C@H]1[C@H](OP(=O)(O)O)[C@@H](OP(=O)(O)O)[C@H](OP(=O)(O)O)[C@@H](OP(=O)(O)O)[C@H]1OP(=O)(O)O [IP6] |
| – | 2 | bovine arrestin-3 (1-393) (domain or fragment) |
